The source made the active and inactive calls. No rule for the calls is given here.
Tested on: CCRIS mutagenicity, Ames/micronucleus/aberration tests
Assay: CCRIS mutagenicity studies
[1] = Test System: AMES SALMONELLA TYPHIMURIUM, Strain/Indicator: TA98, Metabolic Activation: NONE, Method: PREINCUBATION
[2] = Test System: AMES SALMONELLA TYPHIMURIUM, Strain/Indicator: TA100, Metabolic Activation: NONE, Method: PREINCUBATION
[3] = Test System: AMES SALMONELLA TYPHIMURIUM, Strain/Indicator: TA1535, Metabolic Activation: NONE, Method: PREINCUBATION
[4] = Test System: AMES SALMONELLA TYPHIMURIUM, Strain/Indicator: TA1537, Metabolic Activation: NONE, Method: PREINCUBATION

Cc1cccc(C)c1N
mutagenic call (End Point: IN VITRO CHROMOSOMAL ABERRATIONS, Test System: CHINESE HAMSTER OVARY CELLS, Metabolic Activation: NONE): active; positive; precipitation occurred at all doses
mutagenic call (End Point: IN VITRO CHROMOSOMAL ABERRATIONS, Test System: CHINESE HAMSTER OVARY CELLS, Metabolic Activation: RAT, LIVER, S-9, AROCLOR 1254): active; positive; precipitation occurred at 1200 and 1300 ug/ml
mutagenic call (Test System: AMES SALMONELLA TYPHIMURIUM, Strain/Indicator: TA97, Metabolic Activation: HAMSTER, LIVER, S-9, AROCLOR 1254 (30%), Method: PREINCUBATION): inactive; negative
mutagenic call (Test System: AMES SALMONELLA TYPHIMURIUM, Strain/Indicator: TA97, Metabolic Activation: NONE, Method: PREINCUBATION): inactive; negative
mutagenic call (Test System: AMES SALMONELLA TYPHIMURIUM, Strain/Indicator: TA97, Metabolic Activation: RAT, LIVER, S-9, AROCLOR 1254 (30%), Method: PREINCUBATION): inactive; negative
mutagenic call (Test System: AMES SALMONELLA TYPHIMURIUM, Strain/Indicator: TA98, Metabolic Activation: HAMSTER, LIVER, S-9, AROCLOR 1254 (10%), Method: PREINCUBATION): inactive; negative
mutagenic call (Test System: AMES SALMONELLA TYPHIMURIUM, Strain/Indicator: TA98, Metabolic Activation: HAMSTER, LIVER, S-9, AROCLOR 1254 (30%), Method: PREINCUBATION): inactive; negative
mutagenic call (Test System: AMES SALMONELLA TYPHIMURIUM, Strain/Indicator: TA98, Metabolic Activation: HAMSTER, LIVER, S-9, AROCLOR 1254, Method: PREINCUBATION): inactive; negative
mutagenic call [1]: inactive; negative
mutagenic call (Test System: AMES SALMONELLA TYPHIMURIUM, Strain/Indicator: TA98, Metabolic Activation: RAT, LIVER, S-9, AROCLOR 1254 (10%), Method: PREINCUBATION): inactive; negative
mutagenic call (Test System: AMES SALMONELLA TYPHIMURIUM, Strain/Indicator: TA98, Metabolic Activation: RAT, LIVER, S-9, AROCLOR 1254 (30%), Method: PREINCUBATION): inactive; negative
mutagenic call (Test System: AMES SALMONELLA TYPHIMURIUM, Strain/Indicator: TA98, Metabolic Activation: RAT, LIVER, S-9, AROCLOR 1254, Method: PREINCUBATION): inactive; negative
mutagenic call (Test System: AMES SALMONELLA TYPHIMURIUM, Strain/Indicator: TA100, Metabolic Activation: HAMSTER, LIVER, S-9, AROCLOR 1254 (5%), Method: PREINCUBATION): inactive; negative
mutagenic call (Test System: AMES SALMONELLA TYPHIMURIUM, Strain/Indicator: TA100, Metabolic Activation: HAMSTER, LIVER, S-9, AROCLOR 1254 (10%), Method: PREINCUBATION): inactive; negative
mutagenic call (Test System: AMES SALMONELLA TYPHIMURIUM, Strain/Indicator: TA100, Metabolic Activation: HAMSTER, LIVER, S-9, AROCLOR 1254, Method: PREINCUBATION): inactive; negative
mutagenic call [2]: inactive; negative
mutagenic call (Test System: AMES SALMONELLA TYPHIMURIUM, Strain/Indicator: TA100, Metabolic Activation: RAT, LIVER, S-9, AROCLOR 1254 (5 OR 30%), Method: PREINCUBATION): inactive; negative
mutagenic call (Test System: AMES SALMONELLA TYPHIMURIUM, Strain/Indicator: TA100, Metabolic Activation: RAT, LIVER, S-9, AROCLOR 1254 (10%), Method: PREINCUBATION): inactive; negative
mutagenic call (Test System: AMES SALMONELLA TYPHIMURIUM, Strain/Indicator: TA100, Metabolic Activation: RAT, LIVER, S-9, AROCLOR 1254, Method: PREINCUBATION): inactive; negative
mutagenic call (Test System: AMES SALMONELLA TYPHIMURIUM, Strain/Indicator: TA1535, Metabolic Activation: HAMSTER, LIVER, S-9, AROCLOR 1254 (5%), Method: PREINCUBATION): inactive; negative
mutagenic call (Test System: AMES SALMONELLA TYPHIMURIUM, Strain/Indicator: TA1535, Metabolic Activation: HAMSTER, LIVER, S-9, AROCLOR 1254, Method: PREINCUBATION): inactive; negative
mutagenic call [3]: inactive; negative
mutagenic call (Test System: AMES SALMONELLA TYPHIMURIUM, Strain/Indicator: TA1535, Metabolic Activation: RAT, LIVER, S-9, AROCLOR 1254 (5%), Method: PREINCUBATION): inactive; negative
mutagenic call (Test System: AMES SALMONELLA TYPHIMURIUM, Strain/Indicator: TA1535, Metabolic Activation: RAT, LIVER, S-9, AROCLOR 1254 (10 OR 30%), Method: PREINCUBATION): inactive; negative
mutagenic call (Test System: AMES SALMONELLA TYPHIMURIUM, Strain/Indicator: TA1535, Metabolic Activation: RAT, LIVER, S-9, AROCLOR 1254, Method: PREINCUBATION): inactive; negative
mutagenic call (Test System: AMES SALMONELLA TYPHIMURIUM, Strain/Indicator: TA1537, Metabolic Activation: HAMSTER, LIVER, S-9, AROCLOR 1254 (10%), Method: PREINCUBATION): inactive; negative
mutagenic call (Test System: AMES SALMONELLA TYPHIMURIUM, Strain/Indicator: TA1537, Metabolic Activation: HAMSTER, LIVER, S-9, AROCLOR 1254, Method: PREINCUBATION): inactive; negative
mutagenic call [4]: inactive; negative
mutagenic call (Test System: AMES SALMONELLA TYPHIMURIUM, Strain/Indicator: TA1537, Metabolic Activation: RAT, LIVER, S-9, AROCLOR 1254 (10%), Method: PREINCUBATION): inactive; negative
mutagenic call (Test System: AMES SALMONELLA TYPHIMURIUM, Strain/Indicator: TA1537, Metabolic Activation: RAT, LIVER, S-9, AROCLOR 1254, Method: PREINCUBATION): inactive; negative

Nc1cc(S(=O)(=O)O)cc2cc(S(=O)(=O)O)cc(O)c12
mutagenic call [1]: inactive; negative
mutagenic call (Test System: AMES SALMONELLA TYPHIMURIUM, Strain/Indicator: TA98, Metabolic Activation: RAT LIVER S-9, PHENOBARBITAL AND BETA-NAPHTHOFLAVONE, Method: PREINCUBATION): inactive; negative
mutagenic call [2]: inactive; negative
mutagenic call (Test System: AMES SALMONELLA TYPHIMURIUM, Strain/Indicator: TA100, Metabolic Activation: RAT LIVER S-9, PHENOBARBITAL AND BETA-NAPHTHOFLAVONE, Method: PREINCUBATION): inactive; negative
mutagenic call [3]: inactive; negative
mutagenic call (Test System: AMES SALMONELLA TYPHIMURIUM, Strain/Indicator: TA1535, Metabolic Activation: RAT LIVER S-9, PHENOBARBITAL AND BETA-NAPHTHOFLAVONE, Method: PREINCUBATION): inactive; negative
mutagenic call [4]: inactive; negative
mutagenic call (Test System: AMES SALMONELLA TYPHIMURIUM, Strain/Indicator: TA1537, Metabolic Activation: RAT LIVER S-9, PHENOBARBITAL AND BETA-NAPHTHOFLAVONE, Method: PREINCUBATION): inactive; negative
mutagenic call (Test System: AMES SALMONELLA TYPHIMURIUM, Strain/Indicator: TA1538, Metabolic Activation: NONE, Method: PREINCUBATION): inactive; negative
mutagenic call (Test System: AMES SALMONELLA TYPHIMURIUM, Strain/Indicator: TA1538, Metabolic Activation: RAT LIVER S-9, PHENOBARBITAL AND BETA-NAPHTHOFLAVONE, Method: PREINCUBATION): inactive; negative
mutagenic call (Test System: E.COLI, Strain/Indicator: WP2UVRA, Metabolic Activation: NONE, Method: PREINCUBATION): inactive; negative
mutagenic call (Test System: E.COLI, Strain/Indicator: WP2UVRA, Metabolic Activation: RAT LIVER S-9, PHENOBARBITAL AND BETA-NAPHTHOFLAVONE, Method: PREINCUBATION): inactive; negative

Source: PubChem BioAssay AID1259407 (Chemical Carcinogenesis Research Information System (CCRIS), 2018)
